Measured values taken from patent US20150031643A1, “COMBINATION TREATMENT OF ACUTE MYELOID LEUKEMIA AND MYELODYSPLASTIC SYNDROME II” (Boehringer Ingelheim International GmbH, priority 2013, published 2015).

Tested on: human AML cell line MV4;11
Experiment: Nude mouse xenograft model derived from human AML cell line MV4;11: tumor growth
Type: in vivo, mice
Conditions: treated for 19 days
Method: MV4;11 (CRL-9591) cells were obtained from ATCC. According to the Catalogue of Somatic Mutations in Cancer of the Wellcome Trust Sanger Institute, UK, this cell line carries a mutation in the FLT3 gene. Cells were cultured in T175 tissue culture flasks at 37° C. and 5% CO2. The medium used was IMDM supplemented with 10% fetal calf serum, 1% NEAA, 1% sodium pyruvate and 1% glutamine.
To establish subcutaneous tumors, MV4;11 cells were harvested and resuspended in PBS+5% FCS at 5×10^7 cells/ml. 50 μl of the cell suspension containing 2.5×10^6 cells was then injected subcutaneously into the right flank of the mice (1 site per mouse). Growth factor reduced BD Matrigel™ Matrix (BD Biosciences) was added to the cell suspension at a ratio of 1:1 before the injection. When tumors were well established and had reached a tumor volume of ˜120 mm^3, mice were randomly distributed between the treatment and the vehicle control groups 14 days after injecting the cells.
The solution was freshly made up each injection day.
The application solution was prepared on each injection day.
Animals were treated for 19 days.

SMILES | T/C (ratio of median tumor volume of treated vs. control tumors) (Example 1, Volasertib alone 10 mg/kg once weekly i.v.) [%] | T/C (ratio of median tumor volume of treated vs. control tumors) (Example 2, Volasertib alone 20 mg/kg once weekly i.v.) [%] | T/C (ratio of median tumor volume of treated vs. control tumors) (Example 1, Azacitidine alone 40 mg/kg once weekly i.v.) [%] | T/C (ratio of median tumor volume of treated vs. control tumors) (Example 2, Azacitidine alone 40 mg/kg once weekly i.v.) [%]
CC[C@@H]1C(=O)N(C)c2cnc(Nc3ccc(C(=O)N[C@H]4CC[C@H](N5CCN(CC6CC6)CC5)CC4)cc3OC)nc2N1C(C)C [Volasertib, N-[trans-4-[4-(cyclopropylmethyl)-1-piperazinyl]cyclohexyl]-4-[[(7R)-7-ethyl-5,6,7,8-tetrahydro-5-methyl-8-(1-methylethyl)-6-oxo-2-pteridinyl]amino]-3-methoxy-benzamide] | 79 | 39 | – | –
Nc1ncn([C@@H]2O[C@H](CO)[C@@H](O)[C@H]2O)c(=O)n1 [azacitidine, Azacitidine] | – | – | 78 | 78
